Values quoted from earlier work as cited in US6747006B2, “Use of GLP-1 or analogs in treatment of myocardial infarction” (Eli Lilly and Company, priority 1996, dated 2004).

Tested on: diabetic patients during acute myocardial infarction
Conditions: insulin and glucose infusion, then subcutaneous multidose insulin; compared with control group of diabetics without insulin treatment

Q: For “Insulin: insulin given as control by continuous infusion or subcutaneous injection”, which “lowering of mortality during the year following myocardial infarction” value is on record?
A: 30%
